{"source": "paper PMC10713630", "about": "“Elucidation of the structural basis for ligand binding and translocation in conserved insect odorant receptor co-receptors” (Nature Communications, 2023)", "key": {"DmelOrco S146A": {"molecular_target": "DmelOrco S146A (Drosophila melanogaster, UniProt Q9VNB5, S146A)", "sequence (Q9VNB5 whole entry S146A, the tested form may be a part)": "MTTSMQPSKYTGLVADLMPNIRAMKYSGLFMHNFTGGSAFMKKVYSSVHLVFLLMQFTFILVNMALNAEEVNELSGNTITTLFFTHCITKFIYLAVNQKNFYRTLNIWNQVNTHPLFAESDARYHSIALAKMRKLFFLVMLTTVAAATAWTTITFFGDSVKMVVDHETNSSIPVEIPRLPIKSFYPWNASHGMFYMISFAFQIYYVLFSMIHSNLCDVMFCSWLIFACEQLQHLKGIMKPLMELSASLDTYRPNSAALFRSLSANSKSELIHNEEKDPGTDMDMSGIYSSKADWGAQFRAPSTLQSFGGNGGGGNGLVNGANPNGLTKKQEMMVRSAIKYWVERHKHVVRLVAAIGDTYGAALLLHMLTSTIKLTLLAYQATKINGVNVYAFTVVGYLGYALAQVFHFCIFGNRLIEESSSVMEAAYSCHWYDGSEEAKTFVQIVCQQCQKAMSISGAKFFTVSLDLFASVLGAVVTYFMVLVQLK", "test": "TEVC recording of VUAA1-induced current, DmelOrco S146A in Xenopus oocytes", "format": "cell-based", "from_the_text": "(§1) All Orco gene sequences were optimized[63] for protein expression in Xenopus laevis oocytes with the GenSmartTM Codon optimization Tool and subcloned into a pGEMHE-derived vector. The wildtype gene of Drosophila melanogaster Orco (DmelOrco) was synthesized by Genscript and subcloned with XmaI/XhoI cloning sites. Site-directed mutagenesis of DmelOrco was done by PCR with the Q5® site directed mutagenesis kit (NEB) using primers optimized with the NEBase Changer online tool and following the supplier’s protocol. After transformation of commercial competent bacteria (XL10 Gold) by standard heat-shock protocol and overnight culture in ampicillin-containing LB plates, positive clones were identified by electrophoretic restriction profile and external sequencing (Genewiz). DNAs of positive clones were amplified with Qiagen MidiPrep Kit and the ORF was fully sequenced. For in vitro transcription, DNAs were linearized with restriction enzyme NotI that cuts a unique site in the 3′ region of the polyA tail. […] DNA and RNA were analyzed by agarose-gel electrophoresis and quantified by spectrophotometry. […]\n(§2) Whole cell currents were recorded with the two-electrode voltage-clamp (TEVC) technique with the HiClamp robot (MultiChannel System). […] Data were extracted with M. Vivaudou’s programs[65] and statistically analyzed with Prism 8 (Graphpad)."}, "DmelOrco L141W": {"molecular_target": "DmelOrco L141W (Drosophila melanogaster, UniProt Q9VNB5, L141W)", "sequence (Q9VNB5 whole entry L141W, the tested form may be a part)": "as the sequence (Q9VNB5 whole entry S146A, the tested form may be a part) above, with L141W, A146S counted along it", "test": "TEVC recording of VUAA1-induced current, DmelOrco L141W in Xenopus oocytes", "format": "cell-based", "conditions": "500 µM VUAA1, TEVC", "from_the_text": "as §1, with “sequenced.” for “sequenced. For in vitro transcription, DNAs were linearized with restriction enzyme NotI that cuts a unique site in the 3′ region of the polyA tail.”\n(§3) Whole cell currents were recorded with the two-electrode voltage-clamp (TEVC) technique with the HiClamp robot (MultiChannel System). […] Data were extracted with M. Vivaudou’s programs[65] and statistically analyzed with Prism 8 (Graphpad). […]\n(§4) 100 by 500 µM of the ligand VUAA1 and measured by TEVC recordings on DmelOrco WT and mutants […]"}, "DmelOrco V206A": {"molecular_target": "DmelOrco V206A (Drosophila melanogaster, UniProt Q9VNB5, V206A)", "sequence (Q9VNB5 whole entry V206A, the tested form may be a part)": "as the sequence (Q9VNB5 whole entry S146A, the tested form may be a part) above, with A146S, V206A counted along it", "test": "TEVC recording of VUAA1-induced current, DmelOrco V206A in Xenopus oocytes", "format": "cell-based", "parameters": "VUAA1-induced current, V206A: unit not given here", "from_the_text": "as §1, §2"}, "AgamOrco/AgamOR65": {"test_system": "AgamOrco/AgamOR65", "conditions": "AgamOrco/AgamOR65; ref Tailor et al. 1; cited from earlier work"}, "AalbOrco": {"test_system": "AalbOrco", "test": "TEVC recording of VUAA1-induced current, AalbOrco in Xenopus oocytes", "format": "cell-based, Aedes albopictus", "conditions": "500 µM VUAA1, TEVC, each value one oocyte, Fig.S1c source data", "from_the_text": "as §1, with “sequenced.” for “sequenced. For in vitro transcription, DNAs were linearized with restriction enzyme NotI that cuts a unique site in the 3′ region of the polyA tail.”\nas §3\n37 from different species expressed in Xenopus oocytes and recorded by TEVC. […]"}, "DmelOrco L141V": {"molecular_target": "DmelOrco L141V (Drosophila melanogaster, UniProt Q9VNB5, L141V)", "sequence (Q9VNB5 whole entry L141V, the tested form may be a part)": "as the sequence (Q9VNB5 whole entry S146A, the tested form may be a part) above, with L141V, A146S counted along it", "test": "TEVC recording of VUAA1-induced current, DmelOrco L141V in Xenopus oocytes", "format": "cell-based", "conditions": "500 µM VUAA1, TEVC", "from_the_text": "as §1, with “sequenced.” for “sequenced. For in vitro transcription, DNAs were linearized with restriction enzyme NotI that cuts a unique site in the 3′ region of the polyA tail.”\nas §3, §4"}, "DmelOrco Y400A": {"molecular_target": "DmelOrco Y400A (Drosophila melanogaster, UniProt Q9VNB5, Y400A)", "sequence (Q9VNB5 whole entry Y400A, the tested form may be a part)": "as the sequence (Q9VNB5 whole entry S146A, the tested form may be a part) above, with A146S, Y400A counted along it", "test": "TEVC recording of VUAA1-induced current, DmelOrco Y400A in Xenopus oocytes", "format": "cell-based", "conditions": "500 µM VUAA1, TEVC", "from_the_text": "as §1, §2"}, "DmelOrco T80A": {"molecular_target": "DmelOrco T80A (Drosophila melanogaster, UniProt Q9VNB5, T80A)", "sequence (Q9VNB5 whole entry T80A, the tested form may be a part)": "as the sequence (Q9VNB5 whole entry S146A, the tested form may be a part) above, with T80A, A146S counted along it", "test": "TEVC recording of VUAA1-induced current, DmelOrco T80A in Xenopus oocytes", "format": "cell-based", "parameters": "VUAA1-induced current, T80A: unit not given here", "from_the_text": "as §1, §2"}, "DmelOrco I79A": {"molecular_target": "DmelOrco I79A (Drosophila melanogaster, UniProt Q9VNB5, I79A)", "sequence (Q9VNB5 whole entry I79A, the tested form may be a part)": "as the sequence (Q9VNB5 whole entry S146A, the tested form may be a part) above, with I79A, A146S counted along it", "test": "TEVC recording of VUAA1-induced current, DmelOrco I79A in Xenopus oocytes", "format": "cell-based", "parameters": "VUAA1-induced current, i79A: unit not given here", "from_the_text": "as §1, §2"}, "DmelOrco K373E": {"molecular_target": "DmelOrco K373E (Drosophila melanogaster, UniProt Q9VNB5, K373E)", "sequence (Q9VNB5 whole entry K373E, the tested form may be a part)": "as the sequence (Q9VNB5 whole entry S146A, the tested form may be a part) above, with A146S, K373E counted along it", "test": "TEVC recording of VUAA1-induced current, DmelOrco K373E in Xenopus oocytes", "format": "cell-based", "parameters": "VUAA1-induced current, K373E: unit not given here", "from_the_text": "as §1, §2"}}, "note": "Values joined by “and” are separate entries in the source; they are usually repeats but may differ in a detail not shown here. Identical values can stand only once.", "data": [{"smiles": "CCc1ccc(NC(=O)CSc2nnc(-c3cccnc3)n2CC)cc1", "note": "[VUAA1, N-(4-ethylphenyl)−2-((4-ethyl-5-(3-pyridinyl)−4H-1,2,4-triazol-3-yl)thio)acetamide]", "values": [{"measurement": "Current induced by VUAA1 (median)", "setting": "DmelOrco S146A; 500 µM VUAA1, TEVC, S146A", "value": 7.55, "unit": "µA"}, {"measurement": "Effect on VUAA1-induced channel response", "setting": "DmelOrco S146A; DmelOrco S146A", "value": "I"}, {"measurement": "Response to VUAA1 compared with WT", "setting": "DmelOrco L141W", "value": "did not induce significant change"}, {"measurement": "Response to VUAA1 compared with WT", "setting": "DmelOrco V206A; 500 µM VUAA1, TEVC, V206A", "value": "did not significantly affect the amplitude of activation"}, {"measurement": "VUAA1-induced current, V206A", "setting": "DmelOrco V206A; Fig.4b, individual oocytes", "value": "5.13 and 5.19 and 4.77 and 3.78 and 5.39 and 5.08 and 2.86 and 2.36"}, {"measurement": "EC50", "setting": "AgamOrco/AgamOR65", "value": 37, "unit": "µM"}, {"measurement": "Current amplitude induced by 500 µM VUAA1 (single recordings)", "setting": "AalbOrco", "value": "2.82 µA and 1.66 µA"}, {"measurement": "Response to VUAA1 compared with WT", "setting": "DmelOrco L141V", "value": "did not induce significant change"}, {"measurement": "Response to VUAA1 compared with WT", "setting": "DmelOrco Y400A", "value": "did not significantly change the response"}, {"measurement": "Response to VUAA1 compared with WT", "setting": "DmelOrco T80A; 500 µM VUAA1, TEVC, T80A", "value": "did not significantly affect the amplitude of activation"}, {"measurement": "VUAA1-induced current, T80A", "setting": "DmelOrco T80A; Fig.4b, individual oocytes", "value": "2.4 and 1.22 and 3.78 and 5.59 and 4.73 and 0.91 and 2.46 and 0.65 and 0.56 and 4.38 and 3.16 and 5.8"}, {"measurement": "Response to VUAA1 compared with WT", "setting": "DmelOrco I79A; 500 µM VUAA1, TEVC, I79A", "value": "did not significantly affect the amplitude of activation"}, {"measurement": "VUAA1-induced current, i79A", "setting": "DmelOrco I79A; Fig.4b, individual oocytes", "value": "1.26 and 4.71 and 3.65 and 1.07 and 3.06 and 3.49 and 3.19 and 0.68 and 2.72 and 3.85"}, {"measurement": "Current induced by VUAA1 (median)", "setting": "DmelOrco K373E; 500 µM VUAA1, TEVC, K373E", "value": 7.47, "unit": "µA"}, {"measurement": "VUAA1-induced current, K373E", "setting": "DmelOrco K373E; Fig.4b, individual oocytes", "value": "4.46 and 4.23 and 7.21 and 7.53 and 6.82 and 10.02 and 4.07 and 5.42 and 9.17 and 11.32 and 9.58 and 7.4 and 16.4 and 9.48 and 7.37 and 12.12"}]}]}
